This experiment deals with T1, Ode-UNC-29:Ode-UNC-63:Ode-UNC-38 (Oesophagostomum dentatum, UniProt E5KIX9+V5J2B2+V5J336).
T1 construct: co-injected with Haemonchus contortus ancillary factors Hco-ric-3, Hco-unc-50, Hco-unc-74; clones from earlier work of the authors
T1 sequence (V5J2B2 21-497): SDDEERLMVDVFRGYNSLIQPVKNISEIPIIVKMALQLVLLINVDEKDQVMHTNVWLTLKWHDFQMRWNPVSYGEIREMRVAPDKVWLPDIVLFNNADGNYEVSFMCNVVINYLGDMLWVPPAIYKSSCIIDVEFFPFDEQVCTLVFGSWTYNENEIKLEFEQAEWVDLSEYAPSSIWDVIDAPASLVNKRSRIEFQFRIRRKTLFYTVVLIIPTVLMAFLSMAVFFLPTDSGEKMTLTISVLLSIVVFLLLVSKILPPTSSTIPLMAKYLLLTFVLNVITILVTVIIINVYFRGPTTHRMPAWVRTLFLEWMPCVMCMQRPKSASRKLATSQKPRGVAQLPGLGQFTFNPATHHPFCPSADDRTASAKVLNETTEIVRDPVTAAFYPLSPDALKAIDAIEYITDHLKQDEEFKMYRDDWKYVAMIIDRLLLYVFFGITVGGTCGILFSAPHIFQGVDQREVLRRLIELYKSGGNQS
T1 sequence (E5KIX9 22-507): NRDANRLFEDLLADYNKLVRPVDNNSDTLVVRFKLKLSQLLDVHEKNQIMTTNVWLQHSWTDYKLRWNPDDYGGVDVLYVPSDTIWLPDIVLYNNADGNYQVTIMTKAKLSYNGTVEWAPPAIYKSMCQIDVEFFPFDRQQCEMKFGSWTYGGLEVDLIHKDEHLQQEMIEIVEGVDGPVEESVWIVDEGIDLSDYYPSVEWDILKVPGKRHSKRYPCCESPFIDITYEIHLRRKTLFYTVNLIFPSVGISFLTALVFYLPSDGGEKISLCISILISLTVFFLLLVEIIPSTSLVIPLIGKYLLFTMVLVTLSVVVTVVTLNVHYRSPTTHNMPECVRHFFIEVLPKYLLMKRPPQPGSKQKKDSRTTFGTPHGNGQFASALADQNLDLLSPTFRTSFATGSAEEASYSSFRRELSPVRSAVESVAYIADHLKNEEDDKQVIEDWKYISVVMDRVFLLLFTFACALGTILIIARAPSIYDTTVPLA
T1 sequence (V5J336 21-507): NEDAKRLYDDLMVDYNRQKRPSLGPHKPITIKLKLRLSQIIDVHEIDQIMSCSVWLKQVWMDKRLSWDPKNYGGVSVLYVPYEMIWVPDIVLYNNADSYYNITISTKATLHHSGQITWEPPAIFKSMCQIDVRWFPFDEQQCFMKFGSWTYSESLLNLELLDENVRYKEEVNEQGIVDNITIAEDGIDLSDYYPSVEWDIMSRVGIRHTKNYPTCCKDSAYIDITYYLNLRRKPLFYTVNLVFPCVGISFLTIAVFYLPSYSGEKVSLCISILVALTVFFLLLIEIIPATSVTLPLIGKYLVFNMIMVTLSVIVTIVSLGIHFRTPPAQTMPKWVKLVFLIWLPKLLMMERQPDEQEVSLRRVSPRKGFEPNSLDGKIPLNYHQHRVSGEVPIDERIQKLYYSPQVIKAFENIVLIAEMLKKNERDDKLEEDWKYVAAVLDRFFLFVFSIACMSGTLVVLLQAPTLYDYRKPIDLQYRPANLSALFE
Put plainly: two-electrode voltage clamp, Xenopus oocytes, agonist concentration-response, Hill fit. In kind it is cell-based.

This is an account of results in publication PMC4709073, “Curiouser and Curiouser: The Macrocyclic Lactone, Abamectin, Is also a Potent Inhibitor of Pyrantel/Tribendimidine Nicotinic Acetylcholine Receptors of Gastro-Intestinal Worms” (PLoS ONE, 2016).

SMILES strings stand for the structures.

Consider `CC(=O)OCC[N+](C)(C)C` [acetylcholine], for which the EC50 came out at 13 ± 1.6 µM.

In turn, `CN1CCCN=C1/C=C/c1cccs1` [pyrantel] yielded an EC50 of 0.4 µM.
